Consider four compounds from US20110200708A1, “A COMPOSITION FOR ACTIVATING AND/OR STABILIZING MICRO-ORGANISMS” (priority 2008, published 2011).

Values joined by “and” are separate entries in the source; they are usually repeats but may differ in a detail not shown here. Equal values may be shown once. Read-outs that look alike come from different tables or passages of the source.

Test [1] concerns mesophilic lactic acid bacteria Strain 3. The note with it: 31° C. Here is the method:
(§1) One litre of 2%-fat UHT milk was added to a previously sterilized 1200 ml fermentor vessel. Suspensions of yeast extract formulated with either iron pyrophosphate or iron sulfate were sterilized separately and added to the vessel to supply the milk with 0.02 wt % yeast extract and iron at a final amount of 2.4, 4.2 or 6 ppm.
(§2) Vessels were heated to 31° C., inoculated with freshly thawed culture concentrates and incubated for 7 hours under pH-control (pH between 5.9 and 6.1). After the incubation, the obtained starter culture was immediately cooled to a temperature below 8° C.
(§3) The obtained starter culture was tested for acidification activity by inoculating cold 2%-fat UHT-pasteurised milk with 3.0% (v/v) of the culture, incubating the inoculated milk for 2.5 hours at 31° C., and then measuring the change in pH of the milk versus non-inoculated milk. The experiment was done for five different mesophilic lactic acid bacteria strains.

Test [2] has as its system mesophilic lactic acid bacteria Strain 4. The note with it: 31° C. Here is the method:
as §1, §2, §3

Test [3] relates to mesophilic lactic acid bacteria Strain 5. Particulars: 31° C. Here is the method:
as §1, §2, §3

Test [4] has as its system mesophilic lactic acid bacteria Strain 1. The note with it: 31° C., in the absence of iron 1.18. Here is the method:
as §1, §2, §3

Test [5] deals with mesophilic lactic acid bacteria Strain 2. The note with it: 31° C., in the absence of iron 1.44. Here is the method: as §1, §2, §3
A further test deals with strain 6. Kind of test: Acidification activity of strain 6 bulk starter cultures at different iron and manganese concentrations. In kind it is cell-based, mesophilic lactic acid bacteria. Here is the method: The strains were fermented in sterilized production medium in a standard fermentation vessel. The fermentation was carried out by maintaining the pH between 6-6.5 with ammonia at a temperature of about 30° C. The culture was harvested after ammonia consumption was stabilized. The culture was cooled to a temperature of below 10° C. and centrifuged. A concentration factor (harvested broth over pellet volume) of 15-20 was obtained. The obtained concentrate was used for further testing, e.g. with the cell concentrates a series of bulk starter culture fermentations was performed. […] The bulk starter culture was prepared by fermenting the milk during 6 hours at 30° C. under pH-stat conditions. Ammonia was used to maintain the pH at 6.0-6.2. Samples (1.5 ml) of the cultures were taken after 5 and 6 hours fermentation. The samples were tested to establish the acidification activity of the culture under standard conditions. […] Several different final iron and manganese concentrations were used in this experiment. The bulk starter culture was prepared as described above with the proviso that the UHT milk was inoculated with 0.6 wt % cell concentrate.

For test [6], the system named is mesophilic lactic acid bacteria Strain 8. Nature of the test: Acidification activity of bulk starter cultures with yeast extract, iron, manganese and/or molybdate, Strain 8. The class given is cell-based. The note with it: YE 0.02 wt %, Fe, Mn, Mo 8 ppm each. Here is the method: (§4) The strains were fermented in sterilized production medium in a standard fermentation vessel. The fermentation was carried out by maintaining the pH between 6-6.5 with ammonia at a temperature of about 30° C. The culture was harvested after ammonia consumption was stabilized. The culture was cooled to a temperature of below 10° C. and centrifuged. A concentration factor (harvested broth over pellet volume) of 15-20 was obtained. The obtained concentrate was used for further testing, e.g. with the cell concentrates a series of bulk starter culture fermentations was performed. […] The bulk starter culture was prepared by fermenting the milk during 6 hours at 30° C. under pH-stat conditions. Ammonia was used to maintain the pH at 6.0-6.2. Samples (1.5 ml) of the cultures were taken after 5 and 6 hours fermentation. The samples were tested to establish the acidification activity of the culture under standard conditions. […] The strains were fermented as described in Example 6. The bulk starter cultures were prepared as described in Example 6 with the proviso that the UHT milk was inoculated with 0.6 wt % cell concentrate. Acid production was measured as described in Example 6 with the proviso that 6 gram sample was taken from the cultures after 5 and 6 hours and added to 200 g UHT milk. The experiment was done with two different strains.

In test [7] the test system is mesophilic lactic acid bacteria Strain 9. Kind of test: Acidification activity of bulk starter cultures with yeast extract, iron, manganese and/or molybdate, Strain 9. The class given is cell-based. Particulars: YE 0.02 wt %, Fe, Mn, Mo 8 ppm each. Here is the method:
as §4

The mark [8] stands for this setting: Strain 3, 2.4 ppm iron + 0.02 wt % yeast extract.
Where [9] appears, read: Strain 3, 4.2 ppm iron + 0.02 wt % yeast extract.
The mark [10] stands for this setting: Strain 3, 6.0 ppm iron + 0.02 wt % yeast extract.
[11] abbreviates: Strain 4, 2.4 ppm iron + 0.02 wt % yeast extract.
[12] abbreviates: Strain 4, 4.2 ppm iron + 0.02 wt % yeast extract.
[13] abbreviates: Strain 4, 6.0 ppm iron + 0.02 wt % yeast extract.
Where [14] appears, read: Strain 5, 2.4 ppm iron + 0.02 wt % yeast extract.
[15] abbreviates: Strain 5, 4.2 ppm iron + 0.02 wt % yeast extract.
Where [16] appears, read: Strain 5, 6.0 ppm iron + 0.02 wt % yeast extract.

For `O=P([O-])([O-])OP(=O)([O-])[O-].O=P([O-])([O-])OP(=O)([O-])[O-].O=P([O-])([O-])OP(=O)([O-])[O-].[Fe+3].[Fe+3].[Fe+3].[Fe+3]` [Iron pyrophosphate, iron pyrophosphate], the Acidification activity is 1.45 ΔpH/2.5 h in test [1] (setting [8]); 1.48 ΔpH/2.5 h in test [1] (setting [9]); 1.50 ΔpH/2.5 h in test [1] (setting [10]); 1.48 ΔpH/2.5 h in test [2] (setting [11]); 1.56 ΔpH/2.5 h in test [2] (setting [12]); 1.58 ΔpH/2.5 h in test [2] (setting [13]). Moreover, the Acidification activity in test [3] (setting [14]) is on record as 1.25 ΔpH/2.5 h; in test [3] (setting [15]) it was 1.32 ΔpH/2.5 h; in test [3] (setting [16]) it was 1.33 ΔpH/2.5 h.
With `O=S(=O)([O-])[O-].[Fe+2]` [Iron sulphate, iron sulphate], the Acidification activity in test [4] (Strain 1, 2.4 ppm iron + 0.02 wt % yeast extract) is reported as 1.47 ΔpH/2.5 h; in test [4] (Strain 1, 6.0 ppm iron + 0.02 wt % yeast extract), 1.53 ΔpH/2.5 h; in test [5] (Strain 2, 2.4 ppm iron + 0.02 wt % yeast extract), 1.77 ΔpH/2.5 h; in test [5] (Strain 2, 6.0 ppm iron + 0.02 wt % yeast extract), 1.71 ΔpH/2.5 h; in test [1] (setting [8]) it was 1.49 ΔpH/2.5 h; in test [1] (setting [9]), 1.49 ΔpH/2.5 h. Further, the Acidification activity in test [1] (setting [10]) is reported as 1.51 ΔpH/2.5 h; in test [2] (setting [11]), 1.54 ΔpH/2.5 h; in test [2] (setting [12]) it was 1.56 ΔpH/2.5 h; in test [2] (setting [13]), 1.57 ΔpH/2.5 h; in test [3] (setting [14]), 1.29 ΔpH/2.5 h; in test [3] (setting [15]), 1.33 ΔpH/2.5 h. Moreover, the Acidification activity in test [3] (setting [16]) was 1.35 ΔpH/2.5 h. Moreover, the “Acidification activity of bulk starter culture” value with strain 6 was 1.67 ΔpH/2.5 h and 1.66 ΔpH/2.5 h.
Take `O=S(=O)([O-])[O-].[Mn+2]` [M, manganese sulphate]: the “Acidification activity of bulk starter culture” value in the test with strain 6 (strain 6, Fe 0 ppm, Mn 2.4 ppm, 7 hours, 0/0 ppm 1.61) is 1.65 ΔpH/2.5 h.
Consider `[Na+].[Na+].[O]=[Mo](=[O])([O-])[O-]` [Mo, sodium molybdate], for which the “Acidification activity of bulk starter culture” value was 0.73 ΔpH/2.5 h in test [6] (Strain 8, 5 hours, no addition 0.64); 1.04 ΔpH/2.5 h in test [6] (Strain 8, 6 hours, no addition 1.08); 0.55 ΔpH/2.5 h in test [7] (Strain 9, 5 hours, no addition 0.33); 0.79 ΔpH/2.5 h in test [7] (Strain 9, 6 hours, no addition 0.43).
